The values that follow come from patent US11649222B2, “Compounds” (UNIVERSITETET I OSLO, priority 2016, dated 2023).

Counter-ions that a name gives are not always drawn. Like-named read-outs stand apart in the source and are kept apart here. Marks after values point to notes of the source that are not given here. Where only a bound is given, the exact number is not on record here.

By EC50 is commonly meant the concentration that produces a half-maximal response. Low readings indicate higher potency in that assay, high ones lower potency in that assay.

What all share (assay type): cell-based
One assay relates to human hepG2 cells. In words: In vitro toxicity in human hepG2 cells (AlamarBlue viability). How it is done:
For viability assays, cells were seeded in white 96-well Nunclon plates at a density of 20,000 cells/well and left overnight to adhere before experiments were conducted. Zn chelators dissolved in DMSO were added to white 96-well plates containing 20000 HepG2 cells/well at concentrations ranging from 1 to 1×10^−6 mM (max DMSO concentration never exceeded 1%) and incubated for 24 hours at 37° C. After 24 hours, AlamarBlue® cell viability reagent (Thermo Fisher, Carlsbad, USA) was added (10% final concentration) and incubated for 4 hours at 37° C.
(In general: Resazurin is reduced to fluorescent resorufin, in cell work by metabolically active cells.)

Assay [1] concerns resistant gram-negative MBL-based bacteria. Description: MICx: adjuvant concentration giving carbapenem MIC ≤ 2 mg/L. On the procedure: (§1) • Plate bacterial strain(s) on appropriate media: • Gram-negative bacteria with ESBLs or carbapenemases: green agar plates with 100 mg/L ampicillin • Gram-negative bacteria without β-lactamases: green agar plates • Gram-positive bacteria (Staphylococci and Enterococci): blood agar plates • Incubate o.n. at 37° C. […] (Should be used within 15 min of preparation). • Dilute the 0.5 McFarland suspension 1:100 into MH broth. […] Plate 10 μl of the dilution on MH agar plates (×2). Incubate o.n. at 37° C., count the colonies and calculate the final CFU/ml inoculum in the plate by multiplying the average number of colonies with 10000 and divide by 2. The final inoculum should be between 3-7×10^5 CFU/ml. • Add 50 μl of the prepared bacterial suspension to each well in the microtiter plate except negative growth control. Preparation of Compounds/Antibiotics • Calculate the desired concentration-range and volume of the compounds/antibiotics in the assay. […] Dilute the stock solution in MH broth. Make subsequent 2-fold dilutions in MH broth of the desired concentrations if a concentration range is to be tested (remember the extra dilution factor in the assay plate). Always include extra volume for pipetting. Take into consideration stock solutions that are made in buffers that have an effect on bacterial growth (e.g. DMSO).

The subject of assay [2] is K. pneumoniae K66-45 (NDM-1). Description: Microbroth dilution MIC of carbapenem with/without inhibitor. To be noted: inhibitor 63 mg/L; K. pneumoniae K66-45 NDM-1. How it is done:
as §1

Assay [3] deals with P. aeruginosa K34-7 (VIM-2). The assay is described as above. To be noted: inhibitor 63 mg/L. How it is done: as §1
[4] abbreviates: Homo sapiens, HepG2, estimated values (footnote c), read-out: IC50h.
Where [5] appears, read: lowest concentration of compound X that results in a MIC value of ≤ 2 mg/L for carbapenem antibiotics.
[6] abbreviates: human hepG2 cells, 24 hours, AlamarBlue, 8 replicates, read-out: IC50.
[7] abbreviates: human hepG2 cells, read-out: IC50h.
The mark [8] stands for this setting: Homo sapiens, HepG2, read-out: IC50h.

For `O=C(O)C[C@@H]1CC[C@H](NC(=O)c2ccc(CN(Cc3ccccn3)Cc3ccccn3)nc2)B(O)O1` [Example 163, 2-((3R,6S)-3-(6-((Bis(pyridin-2-ylmethyl)amino)methyl)nicotinamido)-2-hydroxy-1,2-oxaborinan-6-yl)acetic acid], the IC50 in the assay on human hepG2 cells (setting [4]) is 100 µM. Turning to `O=C(O)CN1CCN(CC(=O)O)CCN([C@H](CO)[C@H](O)CO)CCN(CC(=O)O)CC1` [Butrol, reference compound], the MICx in assay [1] (estimated values (footnote c)) is on record as 15^c μM. In addition, the IC50 in the assay with human hepG2 cells (estimated values (footnote c), read-out: IC50h) is 60 µM. `OC1O[C@H](Cn2cc(CN(CCN(Cc3ccccn3)Cc3ccccn3)Cc3ccccn3)nn2)[C@H](O)[C@H](O)[C@H]1O` (stereo partly shown) [Example 91]: in assay [1] (setting [5]), the MICx was 31 µM. Besides, the IC50 in the assay on human hepG2 cells (setting [6]) and in the assay with human hepG2 cells (setting [7]) was 165 µM throughout. For the compound `CC(=O)OC[C@H]1OC(OC(C)=O)[C@H](NC(=O)Cc2ccc(NC(=O)CN(CCN(Cc3ccccn3)Cc3ccccn3)Cc3ccccn3)cc2)[C@@H](OC(C)=O)[C@@H]1OC(C)=O` (stereo partly drawn) [Example 22a, (3R,4R,5S,6R)-6-(acetoxymethyl)-3-(2-(4-(2-((2-(bis(pyridin-2-ylmethyl)amino)ethyl)(pyridin-2-ylmethyl)amino)acetamido)phenyl)acetamido) tetrahydro-2H-pyran-2,4,5-triyltriacetate], the “Meropenem activity in presence of inhibitor” value was 0.25 mg/L in assay [2] and 1 mg/L in assay [3].

As for `OC[C@H]1OC(O)[C@H](n2cc(CN(Cc3ccccn3)Cc3ccccn3)nn2)[C@@H](O)[C@@H]1O` (stereo partly drawn) [Example 84, (3R,4R,5S,6R)-3-(4-((bis(pyridin-2-ylmethyl)amino)methyl)-1H-1,2,3-triazol-1-yl)-6-(hydroxymethyl)tetrahydro-2H-pyran-2,4,5-triol], the MICx in assay [1] (setting [5]) came out at 125 µM. In addition, the IC50 is more than 1000 µM in the assay with human hepG2 cells (setting [6]) and 116 µM in the assay with human hepG2 cells (setting [7]). For `c1ccc(CN(Cc2ccccn2)Cc2ccccn2)nc1` [TPA, N,N,N-tris(2-pyridylmethyl) amine, reference compound], the EC50 in the assay with human hepG2 cells (Homo sapiens, HepG2) amounted to 10 µM.

Turning to `O=C(CNCCc1ccc(NC(=O)CN(CCN(Cc2ccccn2)Cc2ccccn2)Cc2ccccn2)cc1)NCC(O)CO` (stereo not shown) [Example 108], the IC50 in the assay on human hepG2 cells (setting [6]) is more than 1000 µM. With `O=C(Cc1ccc(-n2cc(CN(Cc3ccccn3)Cc3ccccn3)nn2)cc1)NC(CO)(CO)CO` [Example 98, 2-(4-(4-((bis(pyridin-2-ylmethyl)amino)methyl)-1H-1,2,3-triazol-1-yl)phenyl)-N-(1,3-dihydroxy-2-(hydroxymethyl)propan-2-yl)acetamide], the MICx in assay [1] (setting [5]) amounted to 125 µM. Also, the IC50 in the assay on human hepG2 cells (setting [6]) and with human hepG2 cells (setting [7]) was 259 µM throughout. With `CCOCCOCCOCCN(CCN(Cc1ccccn1)Cc1ccccn1)Cc1ccccn1` [Example 9, N1-(2-(2-(2-ethoxyethoxy)ethoxy)ethyl)-N1,N2,N2-tris(pyridin-2-ylmethyl)ethane-1,2-diamine], the “Meropenem activity in presence of inhibitor” value in assay [2] and in assay [3] was not above 0.5 mg/L each time. As to `COC(=O)c1ccc(CN(Cc2ccccc2)Cc2ccccn2)nc1` [Example 186, methyl 6-((benzyl(pyridin-2-ylmethyl)amino)methyl)nicotinate], the IC50 in the assay on human hepG2 cells (setting [6]) is approximately 215 µM. Take `COC(=O)c1ccc(CN(Cc2ccccn2)Cc2ccccn2)nc1` [Example 12, methyl 6-((bis(pyridin-2-ylmethyl)amino)methyl)nicotinate]: the MICx in assay [1] amounted to 31 µM. The IC50 with human hepG2 cells (Homo sapiens, HepG2, 24 h) is 16.5 µM; in the assay on human hepG2 cells (setting [8]) it was 16.4 µM. For the compound `O=C(CN(CCN(Cc1ccccn1)Cc1ccccn1)Cc1ccccn1)Nc1ccc(CC(=O)NC(CO)(CO)CO)cc1` [Example 24, 2-((2-(bis(pyridin-2-ylmethyl)amino)ethyl)(pyridin-2-ylmethyl)amino)-N-(4-(2-(1,3-dihydroxy-2-(hydroxymethyl)propan-2-ylamino)-2-oxoethyl)phenyl)acetamide], in assay [1] (setting [5]), the MICx was determined as 31 µM. Further, in the assay with human hepG2 cells (setting [7]), the IC50 came to 60 µM.

On to `CN(C[C@H](O)[C@@H](O)[C@H](O)[C@H](O)CO)C(=O)Cc1ccc(-n2cc(CN(Cc3ccccn3)Cc3ccccn3)nn2)cc1` [Example 96, 2-(4-(4-((bis(pyridin-2-ylmethyl)amino)methyl)-1H-1,2,3-triazol-1-yl)phenyl)-N-methyl-N-((2S,3R,4R,5R)-2,3,4,5,6-pentahydroxyhexyl)acetamide], for which the MICx in assay [1] (setting [5]) worked out at 125 µM. For the same compound, the IC50 in the assay on human hepG2 cells (setting [6]) was more than 1000 µM; in the assay on human hepG2 cells (setting [7]), not below 118 µM. Consider `OCc1ccc(CN(Cc2ccccn2)Cc2ccccn2)nc1` [Example 14, (6-((bis(pyridin-2-ylmethyl)amino)methyl)pyridin-3-yl) methanol], for which, in assay [1] (setting [5]), the MICx amounted to 31 µM. Besides, the IC50 in the assay with human hepG2 cells (setting [6]) and in the assay on human hepG2 cells (setting [7]) was 12.4 µM each time. Turning to `NCc1ccc(CN(Cc2ccccn2)Cc2ccccn2)nc1` [Example 147, 1-(5-(aminomethyl)pyridin-2-yl)-N,N-bis(pyridin-2-ylmethyl) methanamine hydrochloride], the IC50 in the assay with human hepG2 cells (Homo sapiens, HepG2, 24 h) was approximately 10 µM. Take `O=C(O)CNC(=O)CNC(=O)c1ccc(CN(Cc2ccccn2)Cc2ccccn2)nc1` [Example 109]: in the assay on human hepG2 cells (setting [6]), the IC50 was found to be 128 µM. On the same count and under the same terms, then `O=C(NCCc1ccc(-n2cc(CN(Cc3ccccn3)Cc3ccccn3)nn2)cc1)[C@H]1O[C@H](O)[C@H](O)[C@@H](O)[C@H]1O` [Example 101, (2S,3R,4S,5R,6S)—N-(4-(4-((Bis(pyridin-2-ylmethyl)amino)methyl)-1H-1,2,3-triazol-1-yl)phenethyl)-3,4,5,6-tetrahydroxytetrahydro-2H-pyran-2-carboxamide], with approximately 220 µM. On to `O=C(NC(CO)(CO)CO)c1ccc(CN(Cc2ccccn2)Cc2ccccn2)nc1` [Example 103, 6-((bis(pyridin-2-ylmethyl)amino)methyl)-N-(1,3-dihydroxy-2-(hydroxymethyl)propan-2-yl)nicotinamide], for which the MICx in assay [1] (setting [5]) turned out to be 31 µM. Moreover, the IC50 in the assay with human hepG2 cells (setting [6]) and in the assay on human hepG2 cells (setting [7]) was 67.6 µM each time. As for `CN[C@H](CC(C)C)C(=O)N[C@H]1C(=O)N[C@@H](CC(N)=O)C(=O)N[C@H]2C(=O)N[C@H]3C(=O)N[C@H](C(=O)N[C@H](C(=O)O)c4cc(O)cc(O)c4-c4cc3ccc4O)[C@H](O)c3ccc(c(Cl)c3)Oc3cc2cc(c3O[C@@H]2O[C@H](CO)[C@@H](O)[C@H](O)[C@H]2O[C@H]2C[C@](C)(N)[C@H](O)[C@H](C)O2)Oc2ccc(cc2Cl)[C@H]1O` [Vancomycin, reference compound], the MICx in assay [1] was > 1000^d μM. The IC50 with human hepG2 cells (setting [8]) stood at 20 µM. As for `O=C(Cc1ccc(-n2cc(CN(Cc3ccccn3)Cc3ccccn3)nn2)cc1)NC[C@H](O)CO` [Example 104, (S)-2-(4-(4-((bis(pyridin-2-ylmethyl)amino)methyl)-1H-1,2,3-triazol-1-yl)phenyl)-N-(2,3-dihydroxypropyl)acetamide], the IC50 in the assay on human hepG2 cells (setting [6]) came to 224 µM.

On to `O=C(NC[C@@H](O)CO)c1ccc(CN(Cc2ccccn2)Cc2ccccn2)nc1` [Example 97, (R)-6-((bis(pyridin-2-ylmethyl)amino)methyl)-N-(2,3-dihydroxypropyl)nicotinamide], for which, in the assay with human hepG2 cells (setting [6]), the IC50 was 131 µM. Turning to `O=C(c1ccc(CN(Cc2ccccn2)Cc2ccccn2)nc1)N1CCNCC1` [Example 105, (6-((bis(pyridin-2-ylmethyl)amino)methyl)pyridin-3-yl)(piperazin-1-yl)methanone], the MICx in assay [1] (setting [5]) is 31 µM. In addition, the IC50 was 100 µM with human hepG2 cells (setting [4]) and approximately 210 µM in the assay on human hepG2 cells (setting [6]).
